Where “and” joins values, the source holds several entries; their conditions need not be identical. Equal entries are not always repeated.
Experiments:
[1] = tested on: prostate specific antigen (PSA); conditions: 1,000 mg abiraterone acetate daily, well controlled trials; cited from earlier work
[2] = tested on: 22RV1 human prostate tumor xenograft; assay: Anti-tumor study in 22RV1 xenograft mice; format: in vivo, CB.17 SCID mice; conditions: for Tumor Volume Day 26, individual mice: QD to End, Oral Gavage; for % T/C (mean tumor volume) / % T/C (median tumor volume) / Mean Tumor Volume / Median Tumor Volume: Day 26
Experimental: The objective of the xenograft mice study was to determine the anti-tumor activity of a composition made per Example 2.4 as a single agent versus abiraterone acetate in the 22RV1 human prostate tumor xenograft model. The study was conducted in CB.17 SCID mice injected with 22RV1 cells (5×10^6 cells/mouse) in the subcutaneous right flank. Tumors were grown to a mean tumor size between 100 and 150 mm^3 prior to study enrollment. The mice were dosed with the test article and reference once-daily by oral gavage per Table 12. Tumor volume was measured throughout the study. The study was terminated on day 26 when mean tumor volume of two experimental groups reached ≥1500 mm^3.

[3] = Abiraterone Acetate 22.4 mg/kg QD PO
[4] = Abiraterone Acetate 100 mg/kg QD PO

CC(=O)O[C@H]1CC[C@@]2(C)C(=CC[C@@H]3[C@@H]2CC[C@]2(C)C(c4cccnc4)=CC[C@@H]32)C1 [Abiraterone Acetate, (3β)-17(3-pyridinyl)androsta-5,16-dien-3-ol acetate]
treated patients achieving target PSA reductions [1]: up to 60%
Tumor Volume Day 26, individual mice ([2]; Abiraterone Acetate Dose #1, 22.4 mg/kg): 1,062 mm^3 and 1,389 mm^3 and 808 mm^3 and 1,555 mm^3 and 2,107 mm^3 and 726 mm^3 and 1,606 mm^3 and 1,119 mm^3 and 1,127 mm^3 and 1,143 mm^3
Tumor Volume Day 26, individual mice ([2]; Abiraterone Acetate Dose #2, 100 mg/kg): 1,609 mm^3 and 1,639 mm^3 and 1,084 mm^3 and 1,490 mm^3 and 1,429 mm^3 and 1,453 mm^3 and 1,152 mm^3 and 1,568 mm^3 and 1,287 mm^3 and 2,787 mm^3
% T/C (mean tumor volume) [2, 3]: 84.1%
% T/C (median tumor volume) [2, 3]: 72.8%
Mean Tumor Volume [2, 3]: 1264.2 mm^3
Median Tumor Volume [2, 3]: 1135.0 mm^3
% T/C (mean tumor volume) [2, 4]: 103.1%
% T/C (median tumor volume) [2, 4]: 94.4%
Mean Tumor Volume [2, 4]: 1549.4 mm^3
Median Tumor Volume [2, 4]: 1471.5 mm^3
tumor growth relative to vehicle control ([2]; once-daily oral gavage, low and high doses, 22RV1 xenograft mice): did not result in statistically different tumor growth
